Test results published in patent US20260327216A1, “SUBSTITUTED OXAZOLONE COMPOUND FOR DECREASING LEVELS OF IKZF I-4 PROTEINS” (BRISTOL-MYERS SQUIBB COMPANY, priority 2023, published 2026).

Key:
IKZF1 Ikaros = IKZF1 Ikaros (Homo sapiens, UniProt Q13422+Q96SW2); test: Human Regulatory T Cell Degradation Assay, IKZF1; assay type: cell-based; design: Cryopreserved healthy donor human peripheral blood mononuclear cells (PBMC); endogenous in cells; host or cells: human PBMC from healthy donors (CD8+ T cells by flow cytometry); conditions: human regulatory T cells, 20 hours; for Dmax: Regulatory T cell, 100% = complete degradation, read-out: IKZF1 Ikaros max % deg. observed; for DC50: concentration reducing protein level by 50% vs DMSO
Sequence of IKZF1 Ikaros (Q13422 whole entry): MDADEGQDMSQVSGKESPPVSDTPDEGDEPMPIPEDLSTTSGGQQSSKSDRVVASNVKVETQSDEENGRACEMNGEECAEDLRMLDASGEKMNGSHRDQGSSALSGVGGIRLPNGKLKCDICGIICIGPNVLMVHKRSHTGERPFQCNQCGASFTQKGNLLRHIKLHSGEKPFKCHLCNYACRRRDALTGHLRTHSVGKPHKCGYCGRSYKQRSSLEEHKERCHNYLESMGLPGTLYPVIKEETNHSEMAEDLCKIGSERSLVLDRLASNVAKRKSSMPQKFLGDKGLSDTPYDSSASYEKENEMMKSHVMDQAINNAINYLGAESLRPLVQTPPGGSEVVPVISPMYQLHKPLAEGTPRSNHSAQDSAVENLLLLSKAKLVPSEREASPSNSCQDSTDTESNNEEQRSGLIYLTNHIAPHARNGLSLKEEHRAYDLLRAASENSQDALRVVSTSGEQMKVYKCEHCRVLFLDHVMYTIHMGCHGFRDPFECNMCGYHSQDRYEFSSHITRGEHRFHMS
Sequence of IKZF1 Ikaros (Q96SW2 whole entry): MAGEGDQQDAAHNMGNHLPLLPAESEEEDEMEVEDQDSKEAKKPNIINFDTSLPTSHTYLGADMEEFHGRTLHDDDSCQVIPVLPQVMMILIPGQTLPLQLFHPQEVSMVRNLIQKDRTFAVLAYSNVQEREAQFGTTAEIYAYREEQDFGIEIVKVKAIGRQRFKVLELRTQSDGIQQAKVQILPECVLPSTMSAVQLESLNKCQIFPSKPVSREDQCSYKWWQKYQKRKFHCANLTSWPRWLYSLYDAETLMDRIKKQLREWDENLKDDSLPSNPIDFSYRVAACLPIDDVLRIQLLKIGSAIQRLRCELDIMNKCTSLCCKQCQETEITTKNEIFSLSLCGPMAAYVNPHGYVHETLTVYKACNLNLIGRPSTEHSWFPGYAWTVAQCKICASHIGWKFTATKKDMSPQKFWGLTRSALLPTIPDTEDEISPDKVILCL
Sequence of IKZF1 Ikaros (Q16531 whole entry partner): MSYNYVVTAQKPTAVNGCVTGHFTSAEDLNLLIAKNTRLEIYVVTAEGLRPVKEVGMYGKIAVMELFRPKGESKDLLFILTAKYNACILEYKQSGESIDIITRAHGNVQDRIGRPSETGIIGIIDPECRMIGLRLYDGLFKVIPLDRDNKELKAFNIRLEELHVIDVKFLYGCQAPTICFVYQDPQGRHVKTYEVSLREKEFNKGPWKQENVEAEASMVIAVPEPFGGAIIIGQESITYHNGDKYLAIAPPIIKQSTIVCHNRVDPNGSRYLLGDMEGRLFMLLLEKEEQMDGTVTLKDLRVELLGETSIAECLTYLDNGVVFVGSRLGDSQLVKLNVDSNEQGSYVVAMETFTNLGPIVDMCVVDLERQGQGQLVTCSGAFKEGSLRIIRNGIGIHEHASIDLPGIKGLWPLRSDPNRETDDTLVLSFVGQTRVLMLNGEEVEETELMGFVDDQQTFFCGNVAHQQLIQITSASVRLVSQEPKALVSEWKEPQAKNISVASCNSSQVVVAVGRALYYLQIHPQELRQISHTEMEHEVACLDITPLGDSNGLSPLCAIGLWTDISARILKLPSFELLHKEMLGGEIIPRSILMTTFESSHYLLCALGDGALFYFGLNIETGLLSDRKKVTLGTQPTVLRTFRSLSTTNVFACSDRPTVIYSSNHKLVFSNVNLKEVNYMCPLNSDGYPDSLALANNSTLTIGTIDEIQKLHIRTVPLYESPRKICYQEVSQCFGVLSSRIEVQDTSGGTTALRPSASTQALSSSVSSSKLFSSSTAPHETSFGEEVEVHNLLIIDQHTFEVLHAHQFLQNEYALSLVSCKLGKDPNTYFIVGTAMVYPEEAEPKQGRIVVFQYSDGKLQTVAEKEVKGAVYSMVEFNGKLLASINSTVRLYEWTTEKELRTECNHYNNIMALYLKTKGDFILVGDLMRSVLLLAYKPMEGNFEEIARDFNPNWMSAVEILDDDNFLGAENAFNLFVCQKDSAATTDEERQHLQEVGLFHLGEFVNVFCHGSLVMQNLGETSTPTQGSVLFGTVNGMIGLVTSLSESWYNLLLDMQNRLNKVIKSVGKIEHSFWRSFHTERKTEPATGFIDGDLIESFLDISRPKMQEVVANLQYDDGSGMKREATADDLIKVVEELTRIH
Experimental: Cryopreserved human regulatory T cells were thawed in RPMI+10% FBS+20 ng/mL IL-2. After being spun at 1200 rpm for 5 mins, the cells were resuspended in RPMI+10% FBS+20 ng/mL and rested at 37° C. with 5% CO2 for 3 hours. The cells were then plated at 40,000 cells/well in 40 μL RPMI+10% FBS+20 ng/ml human IL-2 in a 384 well cell culture plate prior to using acoustic dispensing technology (ECHO 555) for adding compounds of interest. Cell cultures were incubated for 20 hours at 37° C. and 5% CO2. In order to facilitate analysis, cell cultures were spun down at 1200 rpm for 5 minutes and the supernatant was discarded using an EL406 plate washer. After washing three times with 70 μL PBS, cell pellets were resuspended in 50 μL of near IR viability staining solution (Life Technologies, Cat #L34975) and incubated for 30 minutes on ice protected from light. Cells were washed three times with 70 μL PBS+0.5% BSA using an EL406 plate washer. After shaking the plate to dislodge the cell pellet, cells were resuspended in 50 μL of Fixation Buffer (eBioScience FoxP3 buffer set 00-5523-00) for 60 minutes at room temperature. After centrifuging and discarding the supernatant, cells were permeabilized with 50 μL of permeabilization buffer (eBioScience FoxP3 buffer set 00-5523-00) for 10 minutes at room temperature. Following permeabilization, cells were spun down and the supernatant was replaced with 30 μL fluorescently labelled antibodies against the intracellular targets Helios (Helios-APC [BioLegend, Cat #137222, 1:50])]), Aiolos, and Ikaros 1× Permeabilization buffer and staining reactions were incubated for 1 bour at room temperature; protected from light. Subsequently, 30 μL of 1× Permeabilization buffer was added prior to centrifuging the cells and discarding the supernatant. Stained cells were resuspended in 30 μL of flow cytometry staining buffer (PBS+0.5% BSA) and analyzed using an Intellicyt Ique Plus flow cytometer.
(§1) Table B-1 lists the maximum observed degradation of the IKZF1 protein and IKZF2 protein as measured in the Human Regulatory T Cell Degradation assay. The results in Table B-1 were rounded to two digits. In the Human Regulatory T Cell Degradation assay, a value of 100% indicated no detectable protein remaining or complete degradation of the protein; and a value of 0% indicated no detectable degradation of the protein by the test compound.

IKZF3 Aiolos = IKZF3 Aiolos (Homo sapiens, UniProt Q96SW2+Q9UKT9); test: Human CD8^+ T Cell Reprogramming Assay, IKZF3; assay type: cell-based; design: Cryopreserved healthy donor human peripheral blood mononuclear cells (PBMC); endogenous in cells; host or cells: human PBMC from healthy donors (CD8+ T cells by flow cytometry); conditions: human PBMC, CD8+ T cells, 24 hours; for IKZF3 Aiolos Maximum Observed Degradation / Dmax: 100% = complete degradation; for Dmax: read-out: IKZF3 Aiolos Maximum Observed Degradation
Sequence of IKZF3 Aiolos (Q9UKT9 whole entry): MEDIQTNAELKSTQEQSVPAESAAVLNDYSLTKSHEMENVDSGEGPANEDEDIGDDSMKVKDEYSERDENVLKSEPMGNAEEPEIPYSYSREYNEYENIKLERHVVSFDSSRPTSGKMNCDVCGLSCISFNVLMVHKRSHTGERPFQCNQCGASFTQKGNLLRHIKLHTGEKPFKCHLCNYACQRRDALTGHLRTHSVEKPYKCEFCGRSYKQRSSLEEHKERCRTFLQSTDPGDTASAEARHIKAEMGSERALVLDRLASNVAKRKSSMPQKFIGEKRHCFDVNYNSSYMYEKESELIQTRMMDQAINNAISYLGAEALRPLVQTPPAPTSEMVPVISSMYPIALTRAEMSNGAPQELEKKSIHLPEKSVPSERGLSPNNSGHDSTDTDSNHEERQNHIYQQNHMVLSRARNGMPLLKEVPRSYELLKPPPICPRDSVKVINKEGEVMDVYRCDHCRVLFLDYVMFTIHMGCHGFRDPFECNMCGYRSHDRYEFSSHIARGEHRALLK
Sequence of IKZF3 Aiolos (Q96SW2 whole entry): as the sequence (Q96SW2 whole entry) above
Sequence of IKZF3 Aiolos (Q16531 whole entry partner): as the sequence (Q16531 whole entry partner) above
Experimental: Cryopreserved healthy donor human peripheral blood mononuclear cells (PBMC) from healthy donors were thawed and seeded at 500,000 cells/well of 96-well round bottom plates in RPMI 1640 media (Gibco) supplemented with 10% FBS, Pen/Strep (Gibco), MEM-NEAA (Gibco), and sodium pyruvate (Gibco). Cells were treated with titrated doses of compound for 24 hours at 37° C., 5% CO2 before analyzing by flow cytometry.
For flow cytometry staining, cells were washed twice with flow cytometry staining buffer (Thermo Fisher) and incubated in Human Tru-stain Fc block (Biolegend) for 10 minutes before adding eFluor780 viability dye (Thermo Fisher) and surface marker antibody cocktail containing LD-eFluor780, CD3-BUV-395, CD4-BUV805, CD8-FITC, and CD25-BV605 for 30 minutes at 4° C. Cells were then fixed and permeabilized by incubation with permeabilization buffer (eBioscience FoxP3 buffer set 00-5523-00) for 30 minutes at 4° C. as per the kit manufacturer's instructions. Cells were washed twice with the Perm/Wash buffer supplied in the kit as per the manufacturer's instructions and incubated overnight at 4° C. with an intracellular antibody cocktail comprised of antibodies specific for the transcription factors (i.e., Foxp3-BV421, HELIOS-PE-Cy7, EOS-PE, IKAROS-PECF594, AIOLOS-AF647). Cells were washed twice with Perm/Wash buffer and resuspended in flow cytometry staining buffer (Thermo Fisher) prior to acquisition. Sample acquisition and analysis was performed using a BD LSRFortessa (BD Biosciences) flow cytometer. Single-stain controls for each fluorochrome were prepared using UltraComp eBead Compensation Beads (Thermo Fisher). Data were analyzed using FlowJo version 10 and GraphPad Prism Software.
as §1, with “D-1” for “B-1”, “IKZF3” for “IKZF2”, “CD8^+” for “Regulatory”, “Reprogramming” for “Degradation”

For O=C1CCC(n2cc(-c3ccccc3)oc2=O)C(=O)N1 (centres unmarked) [Comparative Compound A, 3-(2-oxo-5-phenyloxazol-3(2H)-yl)piperidine-2,6-dione], the Dmax (IKZF1 Ikaros) was 24%, the DC50 (IKZF1 Ikaros) was greater than 10 µM and the “IKZF3 Aiolos Maximum Observed Degradation” value (IKZF3 Aiolos) was 80%. It also gave a Dmax (IKZF3 Aiolos) of 80%.

O=C1CCC(n2cc(-c3ccc(Br)cc3F)oc2=O)C(=O)N1 (centres unmarked) [Comparative Compound B, 3-(5-(4-bromo-2-fluorophenyl)-2-oxooxazol-3(2H)-yl)piperidine-2,6-dione] gave a Dmax (IKZF1 Ikaros) of 47% and a Dmax (IKZF3 Aiolos) of 0%.

With Cc1cc(-c2ccc(-c3cn(C4CCC(=O)NC4=O)c(=O)o3)c(F)c2)nc(N)c1OC(F)F (centres unmarked) [Example 1, 3-(5-(4-(6-Amino-5-(difluoromethoxy)-4-methylpyridin-2-yl)-2-fluorophenyl)-2-oxooxazol-3(2H)-yl)piperidine-2,6-dione] the Dmax (IKZF1 Ikaros) was 46%, the DC50 (IKZF1 Ikaros) was greater than 10 µM and the “IKZF3 Aiolos Maximum Observed Degradation” value (IKZF3 Aiolos; 1440 min) was 69-74%. For the same compound, the Dmax (IKZF3 Aiolos) was 69 to 74% and the DC50 (IKZF3 Aiolos; concentration reducing protein level by 50% vs DMSO) was 22 to 25 nM.
